The values that follow come from patent US7851492B2, “ERG channel openers for the treatment of cardiac arrhythmias” (Neurosearch A/S, priority 2003, dated 2010).

The target in data set [1] is T1, HERG1 channel (Homo sapiens, UniProt Q12809).
T1 construct: expressed in transfected cells; host or cells: Xenopus laevis oocytes (transient expression, vector pXOOM)
In words: HERG1 current by patch clamp with simulated cardiac action potential in HEK293 cells stably expressing HERG1 channels. The format is cell-based. The protocol: In this example the HERG1 channel opening activity of a diphenyl urea derivative for use according to the invention, 1-(3-Trifluoromethyl-phenyl)-3-(2-hydroxy-5-chlorophenyl)-urea (Compound A), is determined using mammalian HEK293 cells stably expressing HERG1 channels.
The HERG1 channel is expressed in HEK293 cells. The gene encoding the HERG1 channel was cloned as described by Warmke & Ganetzky; Proc. Natl. Acad. Sci. USA 1994 91 3438-3442.
(§1) To ensure functional expression in HEK293 cells, the HERG1 gene was sub-cloned in the shuttle-vector pXOOM as described by Jespersen et al.; Biotechniques 2002 32 536-540.
Mammalian expression is obtained by stable transfection of the gene construct in HEK293 cells.
The electrical current through the HERG1 channel is measured using patch clamp technology. HERG1 current is activated by simulated cardiac action potentials.
In brief, this protocol goes from a resting membrane potential of −90 mV to a short initial depolarisation step to +30 mV, followed by a ramp ending at 0 mV. This plateau phase is ended by a repolarisation, going from −15 mV to −90 mV in 70 ms, back to the resting membrane potential, as also shown in the voltage protocol in FIG. 1.
Having reached a stable current level, Compound A was added.

In data set [2] the test system is native cardiac myocytes. In words: Modulation of action potentials in native cardiac myocytes (patch clamp, current clamp mode). The class given is cell-based, guinea pig. The protocol: In this example the activity on native cardiac myocytes from guinea pigs of a compound representative of the invention, 1,3-Bis-(2-hydroxy-5-trifluoromethyl-phenyl)-urea (Compound C), obtained as described in WO 2002/064128, is determined.
The membrane potential of native cardiomyocytes was determined using the patch clamp technique in current clamp mode. The membrane potential was adjusted to approximately −80 mV before start of experiments. Cells were challenged by 20 repetitive rounds of current applications. A single round of application was as follows: Action potentials were evoked by applying a single current pulse of 1 nA lasting from 5-15 ms. The single pulse was followed by 30 repetitive pulses lasting 1-5 ms and with a current amplitude of 100-700 pA. The repetitive pulses were applied at the end of the evoked action potential. These experiments were conducted in the presence or absence of Compound C.
Native cardiomyocytes responded to the described voltage protocol by eliciting an actionpotential.
In general terms: The patch-clamp technique gives a direct electrical read-out from membranes.

For data set [3], the target named is T1, HERG1 channel. In words: HERG1 current by 2-electrode voltage clamp in Xenopus laevis oocytes transiently expressing HERG1 channels. The class given is cell-based. As to the method:
The HERG1 channel is expressed in HEK293 cells. The gene encoding the HERG1 channel was cloned as described by Warmke & Ganetzky, Proc. Natl. Acad. Sci. USA 1994 91 3438-3442.
as §1
The electrical current through the HERG1 channel is measured using 2-electrode voltage clamp technology. HERG1 current is activated by a step protocol.
In brief, this protocol goes from a resting membrane potential of −80 mV (lasting 3 seconds) to a 1 second depolarisation step at +10 mV, followed by a repolarisation step at −60 mV. The protocol is repeated up to 500 times.
Xenopus laevis oocytes transiently expressing HERG1 channels where challenged by a voltage protocol from −80 mV to +10 mV to −60 mV. This protocol was repeated every 7th second until a stable current level was obtained.

In data set [4] the test system is awake guinea pigs. In words: Awake guinea-pig telemetry model: QT intervals in electrocardiograms. The class given is in vivo. Conditions: 50 mg/kg IV. As to the method:
Compounds were dosed IV, and ECG's and heart rate were measured. QT intervals were corrected (QTc) for any change in heart rate.

The mark [5] stands for this setting: native guinea pig cardiomyocytes, current clamp, Example 3.

Molecules are shown by their SMILES.

T1 sequence (Q12809 whole entry): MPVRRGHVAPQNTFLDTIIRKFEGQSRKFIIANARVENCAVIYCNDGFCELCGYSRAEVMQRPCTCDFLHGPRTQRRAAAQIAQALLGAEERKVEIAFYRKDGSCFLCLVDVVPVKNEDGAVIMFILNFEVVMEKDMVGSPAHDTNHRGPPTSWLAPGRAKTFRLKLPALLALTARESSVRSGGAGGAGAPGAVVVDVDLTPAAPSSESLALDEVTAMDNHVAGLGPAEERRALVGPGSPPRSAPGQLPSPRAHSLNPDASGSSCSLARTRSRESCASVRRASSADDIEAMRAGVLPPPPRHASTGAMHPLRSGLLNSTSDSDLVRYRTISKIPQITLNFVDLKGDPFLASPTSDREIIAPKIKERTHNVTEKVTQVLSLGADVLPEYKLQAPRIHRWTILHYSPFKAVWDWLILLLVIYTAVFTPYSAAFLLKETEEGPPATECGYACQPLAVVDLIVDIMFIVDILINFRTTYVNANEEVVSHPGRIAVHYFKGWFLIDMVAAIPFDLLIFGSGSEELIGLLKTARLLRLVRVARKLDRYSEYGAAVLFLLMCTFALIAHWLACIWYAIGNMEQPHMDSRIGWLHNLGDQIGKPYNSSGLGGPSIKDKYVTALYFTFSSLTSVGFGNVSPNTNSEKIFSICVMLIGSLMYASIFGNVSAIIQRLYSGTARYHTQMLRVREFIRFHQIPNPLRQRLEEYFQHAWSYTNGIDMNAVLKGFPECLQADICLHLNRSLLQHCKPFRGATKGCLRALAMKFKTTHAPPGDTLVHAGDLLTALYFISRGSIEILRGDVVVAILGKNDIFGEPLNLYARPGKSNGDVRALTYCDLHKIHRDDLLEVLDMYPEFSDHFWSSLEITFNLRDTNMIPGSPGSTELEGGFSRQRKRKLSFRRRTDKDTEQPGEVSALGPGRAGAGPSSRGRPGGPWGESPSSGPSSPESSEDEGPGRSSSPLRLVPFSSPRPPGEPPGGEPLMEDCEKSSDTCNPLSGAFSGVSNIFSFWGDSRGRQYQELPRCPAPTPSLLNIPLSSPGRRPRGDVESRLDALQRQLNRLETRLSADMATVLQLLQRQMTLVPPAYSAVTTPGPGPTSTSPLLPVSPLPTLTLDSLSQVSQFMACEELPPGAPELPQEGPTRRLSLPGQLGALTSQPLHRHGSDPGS

The term melting point denotes the temperature of the solid-liquid transition. The compound `O=C(Nc1ccccc1F)Nc1cc(Cl)ccc1C(=O)O` [Compound 9, 4-Chloro-2-[3-(2-fluoro-phenyl)-ureido]-benzoic acid] returned a melting point of 195 to 197 °C.
Take `O=C(Nc1cccc(C(F)(F)F)c1)Nc1cc(Cl)ccc1O` [Compound A, 1-(3-Trifluoromethyl-phenyl)-3-(2-hydroxy-5-chlorophenyl)-urea]: in data set [1] (HEK293 cells stably expressing HERG1, simulated cardiac action potential, 10 μM (FIG. 1)), the repolarisation current result was “marked increase”. Also, in data set [1] (HEK293 cells, 3-30 μM), the “current during the last phase of the cardiac simulating voltage protocol (repolarisation current)” value was “increase”. Also, in data set [1] (HEK293 cells, simulated cardiac action potential), the “HERG1 current in the first 200 ms of the resting phase” value was “increased”.
With `COc1ccc(NC(=O)Nc2cccc(C(F)(F)F)c2)c(O)n1` [Compound 4, 1-(2-Hydroxy-6-methoxy-pyridin-3-yl)-3-(3-trifluoromethyl-phenyl)-urea], the melting point was in the range of 223 to 224 °C.
As for `O=C(Nc1cc(C(F)(F)F)ccc1O)Nc1cc(C(F)(F)F)ccc1O` [Compound C, 1,3-Bis-(2-hydroxy-5-trifluoromethyl-phenyl)-urea], in data set [2] (setting [5]), the “cardiac action potential duration” value is listed as “shorting of the cardiac action potential” and the “membrane potential in the presence of the 30 repetitive pulses” value is on record as “stable membrane potential”. In addition, in data set [2] (of 20 rounds of current applications), the “rounds of current applications in which stabilisation was observed” value is 20 rounds.
With `CN(C)C(=O)CCc1ccc(NC(=O)Nc2ccc(Cl)c(C(F)(F)F)c2)c(-c2nnn[nH]2)c1` [Compound 11, 3-[4-[3-(4-Chloro-3-trifluoromethyl-phenyl)-ureido]-3-(1H-tetrazol-5-yl)-phenyl]-N,N-dimethyl-propionamide], the melting point fell in the range of 184.5 to 189.3 °C.
`O=C(Nc1cccc(C(F)(F)F)c1)Nc1c(C(=O)O)[nH]c(=O)[nH]c1=O` [Compound 7, 2,6-Dioxo-5-[3-(3-trifluoromethyl-phenyl)-ureido]-1,2,3,6-tetrahydro-pyrimidine-4-carboxylic acid] gave a melting point of over 300 °C.
With `O=C(Nc1cc(Cl)cc(Cl)c1)Nc1ccc(Cl)cc1-c1nnn[nH]1` [Compound 12, 1-[4-Chloro-2-(1H-tetrazol-5-yl)-phenyl]-3-(3,5-dichloro-phenyl)-urea], the melting point lay in the range of 234 to 236 °C.
Still for that read-out and setting: in the case of `O=C(Nc1cc(C(F)(F)F)ccc1O)Nc1ccccc1C(F)(F)F` [Compound 1, 1-(2-Hydroxy-5-trifluoromethyl-phenyl)-3-(2-trifluoromethyl-phenyl)-urea] it was 158 to 159 °C.
Still for that read-out and setting: in the case of `O=C(Nc1cccc(C(F)(F)F)c1)Nc1nccnc1C(=O)O` [Compound 8, 3-[3-(3-Trifluoromethyl-phenyl)-ureido]-pyrazine-2-carboxylic acid] it was over 300 °C.
With `O=C(Nc1ccc(-c2ccccc2)cc1-c1nnn[nH]1)c1cc(C(F)(F)F)cc(C(F)(F)F)c1` [Compound 15, N-[3-(1H-Tetrazol-5-yl)-biphenyl-4-yl]-3,5-bis-trifluoromethyl-benzamide], the melting point was 156 °C (dec.). In addition, in data set [3] (1-30 μM), the HERG1 current entry is “increase”. The “repolarisation current recorded at −60 mV” value in data set [3] (voltage protocol −80 mV to +10 mV to −60 mV (FIG. 2)) is “marked increase”.
`O=C(Nc1cc(Cl)ccc1O)Nc1ccccc1C(F)(F)F` [Compound 3, 1-(5-Chloro-2-hydroxy-phenyl)-3-(2-trifluoromethyl-phenyl)-urea] registered a melting point of 183 to 184 °C.
On the same count and under the same terms, as for `O=C(Nc1ccc(Nc2ccc(Cl)cc2)c(Cl)c1)c1cc([N+](=O)[O-])ccc1O` [Compound 17, N-[3-Chloro-4-(4-chloro-phenylamino)-phenyl]-2-hydroxy-5-nitro-benzamide], the figure is > 219 °C (dec.).
The compound `O=C(Nc1ncccn1)Nc1ccccc1C(F)(F)F` [Compound 2, 1-Pyrimidin-2-yl-3-(2-trifluoromethyl-phenyl)-urea] showed a melting point of 224 to 225 °C.
Consider `O=C(Nc1cccc(C(F)(F)F)c1)Nc1ccc(Br)cc1-c1nnn[nH]1` [Compound B, 1-(3-Trifluoromethyl-phenyl)-3-[2-(1H-tetrazol-5-yl)-4-bromo-phenyl] urea], for which, in data set [4], the “reduction of the length of the corrected QT interval (QTc) compared to controls” value worked out at 23%.
